This is an account of results in US7691563B2, “Method for alleviating pain using sphingosine-1-phosphate and related compounds, and assays for identifying such compounds” (Sanofi-Aventis Pharma GmbH, priority 2003, dated 2010).

The subject of assay [1] is PAM. The assay can be described thus: PAM translocation to the plasma membrane in HeLa cells (immunofluorescence). Format: cell-based, human. As for the experimental part: Panel B: HeLa cells were treated with 10% fetal bovine serum for different times and stained with anti-PAM antibodies to monitor the subcellular localization.
Panel B: HeLa cells were treated with 0.5 μM S1P for 30 minutes and stained with anti-PAM antibodies to monitor the subcellular localization.
Panel C: Time dependence of PAM translocation in HeLa cells. Serum-starved HeLa cells were treated with 0.5 μM S1P for different times and stained with anti-PAM antibodies to monitor the subcellular localization.
Panel D: HeLa cells were treated with 0.5 μM S1P for 20 minutes and stained with anti-PAM antibodies to monitor the subcellular localization. Prior S1P-treatment were the cells incubated for 24 hours with […] pertussis toxin (PTX), for 20 minutes with, 1 μM GF109203X, 10 μM U0126, BAPTA-AM, U73122 or Ro31-223.
To monitor distribution of PAM in HeLa cells, cells were grown on glass coverslips in DMEM with 10% FBS and 1% penicillin/streptoMycin (Gibco, Karlsruhe, Germany). To visualize translocation of PAM HeLa, cells were serum starved overnight and subsequently treated with 10% serum for 2 hours. Wherever indicated, cells were preincubated for 30 minutes in the presence of different concentrations of inhibitors. The cells were fixed in 4% paraformaldehyde (Sigma, Taufkirchen, Germany) in PBS for 10 minutes and then permeablized in 0.1% Triton X-100 for another 5 minutes. The coverslips were blocked for 1 hour in 3% BSA in PBS and then incubated for 1 hour with anti-PAM antibody (1:50 dilution). This was followed by incubation with FITC-labeled goat anti-rabbit antibody in PBS containing 3% BSA. The cells were then washed with PBS and mounted. For the analysis confocal (BioRad, Hercules, Calif.) and regular flourescence microscopes (Nikon, Duesseldorf, Germany) were used.

For assay [2], the system named is cAMP. The assay can be described thus: cAMP accumulation in HeLa cells. Format: cell-based, human. The note with it: 0.5 μM S1P. As for the experimental part: Panel A: cAMP accumulation in HeLa cells was measured in the absence and presence of serum as described above. The mean ±SEM (Standard error of the mean) of three determinations is shown. Panel A: cAMP accumulation in HeLa cells was measured in the absence (black bars) and presence (grey bars) of 0.5 μM S1P at varying times as described in Materials and Methods section. The mean ±SEM of three determinations is shown. Spinal cord samples were sonicated and centrifugeged at 4° C. for 20 minutes with 18.000×g. The supernatent was used for cAMP measurements. The cAMP accumulation in the cells was determined by the cAMP Detection Kit (Assay Design Inc, Ann Arbor, Mich.) according to the manufacturers instructions.

Assay [3] has as its system ERK1/2. The assay can be described thus: ERK1/2 phosphorylation in HeLa cells (Western blot). Format: cell-based, human. The following applies: HeLa cells incubated with S1P; anti-active ERK and anti-phosphoTyr183 ERK antibodies. As for the experimental part: Panel C: Western Blot analysis of HeLa cells treated with 0.5 μM S1P for 10 minutes. Prior incubation with S1P the cells were incubated for 20 minutes with 10 μM U73122, BAPTA-AM or U0126. Cells were harvested in boiling Laemmli buffer and subjected to Western analyses using anti-active ERK1/2 antibody. Anti-Hsp70 antibody was used as loading control.

Assay [4] has as its system HeLa cells. As to the kind of experiment: Calcium imaging in HeLa cells. Format: cell-based, human.
Assay [5] has as its system adult rats. As to the kind of experiment: Formalin test after intrathecal application of S1P. The assay is classed as in vivo, rat. The note with it: 20 μl of 10 μM S1P intrathecal 15 minutes prior to formalin; 20 to 35 minutes after formalin; versus PBS/DMSO. As for the experimental part: FIG. 24: Pain behaviour of adult rats in the formalin assay with and without application of S1P over a period of 60 minutes. 20 μl of 10 μM S1P or 20 μl PBS/DMSO were given to adult rats by intrathecal application 15 minutes prior to formalin injection. After formalin injection, flinches were counted in 5 minute intervals over a time-period of 60 minutes. The mean of six animal experiments+SEM is shown.
To determine the analgesic effect of S1P, S1P was delivered to the spinal chord by intrathecal application.
Rats were anesthetized with ketamine (60 mg/kg i.p.) and midazolam (0.5-1 mg/kg i.p.). The skin was incised above the vertebral column from vertebrae Th13 up to L3. Muscle tissue around L2-3 was cleared away. The processus spinosus of L3 was removed and a laminectomy was done at L2. Polyethylene catheters (ID 0.28 mm, OD 0.61 mm) were then inserted into the peridural space so that the tip of the catheter reached Th9-10. […]
Within 15 min after stopping the infusion the formalin test was performed. […] Flinches were counted in one minute intervals up to 60 min starting right after formalin injection. […]
20 μl of 10 μM S1P or 20 μl PBS/DMSO were given to adult rats by intrathecal application 15 minutes prior to the formalin injection. Then, flinches were counted in 5 minute intervals over a period of 60 minutes.

Structures are written as SMILES. “And” between values parts separate entries of the source, which are not always exact repeats. Equal entries are not always repeated.

For `CCCCCCCCCCCCC/C=C/[C@@H](O)[C@@H](N)COP(=O)(O)O` [S1P, Sphingosine-1-Phosphate], the “PAM translocation among candidate substances for the serum factor” value in assay [1] (HeLa cells) is “induced PAM translocation”. In assay [1] (HeLa cells treated with 0.1-5 μM S1P), the “cells with PAM translocation to the plasma membrane” value is 70-90% and 80%. In assay [1] (HeLa cells, 500 nM S1P), the “time at which PAM appeared at the plasma membrane” value was found to be 10 min and the “time at which PAM started to disappear from the plasma membrane” value is 1 h. Also, in assay [1] (HeLa cells, 0.1-5 μM S1P), the “time of PAM translocation to the plasma membrane” value is 10 to 30 min. Also, the “intracellular cAMP content” value in assay [2] is recorded as “reduced”. For the same molecule, in assay [3], the ERK1/2 phosphorylation result is given as “detectable”. In assay [4], the intracellular calcium entry was “induced a PLC-dependent calcium increase”. In assay [5], the “number of nociceptive responses (flinches), phase 2A” value is reported as “significant decrease”.
